Source: patent US6864076B2, “Antifungal proteins, DNA coding therefore, and hosts incorporating same” (Syngenta Mogen B.V., priority 1997, dated 2005)

Assays:
Assay in all cases: Oxidase activity (4-AAP/peroxidase, H2O2 production at 510 nm), Michaelis-Menten kinetics with glucose
[1] = molecular target: T1, MS59 carbohydrate oxidase from sunflower (Helianthus annuus), SEQ ID NO: 16 (Helianthus annuus, UniProt A0A9K3EIF7); assay type: biochemical, sunflower (Helianthus annuus cv. zebulon); conditions: substrate glucose; 50 mM potassium phosphate pH 7.0, 25 μM FAD; 17 ng MS59 per assay; per mg protein
T1 sequence (A0A9K3EIF7 29-538): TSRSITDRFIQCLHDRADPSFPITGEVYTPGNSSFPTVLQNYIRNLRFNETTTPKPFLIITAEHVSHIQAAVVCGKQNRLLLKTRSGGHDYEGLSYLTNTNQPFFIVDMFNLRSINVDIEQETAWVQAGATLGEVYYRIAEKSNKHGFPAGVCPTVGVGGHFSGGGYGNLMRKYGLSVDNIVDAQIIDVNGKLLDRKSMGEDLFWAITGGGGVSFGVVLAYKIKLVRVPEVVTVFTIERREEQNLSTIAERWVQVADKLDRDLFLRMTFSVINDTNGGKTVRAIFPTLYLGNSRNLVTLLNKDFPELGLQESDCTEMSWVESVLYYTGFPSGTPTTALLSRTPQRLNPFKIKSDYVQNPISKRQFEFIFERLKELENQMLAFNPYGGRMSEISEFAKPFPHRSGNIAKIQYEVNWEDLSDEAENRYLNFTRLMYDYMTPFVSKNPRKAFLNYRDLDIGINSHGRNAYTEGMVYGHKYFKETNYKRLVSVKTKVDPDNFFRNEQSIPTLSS
Protocol: (§1) Oxidase activity was measured utilizing the reagent 4-amino-antipyrine (4-AAP), based on Gallo, 1981 (Gallo, Methods in Enzymology, 71:665-668, 1981). A reaction volume of 500 μl contained 50 mM potassium phosphate buffer pH 7.0, 25 μM FAD, 10 mM NaN3, 0.01% Triton X-100, 6 mM 2,4,6,tribromohydroxybenzoic acid, 2 mM 4-AAP, and 10 units horseradish peroxidase. Hydrogenperoxide production was measured at 510 nm. Known amounts of hydrogen peroxide were included for calibration.

[2] = molecular target: glucose oxidase (GOX) from Aspergillus niger (Sigma, G 2133) (Aspergillus niger, UniProt P13006); assay type: biochemical; conditions: substrate glucose, 50 mM potassium phosphate pH 7.0, 25 μM FAD, 45 ng GOX per assay
Protocol: as §1

[3] = molecular target: T2, WL64 carbohydrate oxidase from lettuce (Lactuca sativa), SEQ ID NO: 58 (Lactuca sativa, UniProt Q8SA60); assay type: biochemical, lettuce (Lactuca sativa cv. Lollo bionda); conditions: substrate glucose; 50 mM potassium phosphate pH 7.0, 25 μM FAD; 29 ng WL64 per assay; per mg protein
T2 sequence (Q8SA60 28-540): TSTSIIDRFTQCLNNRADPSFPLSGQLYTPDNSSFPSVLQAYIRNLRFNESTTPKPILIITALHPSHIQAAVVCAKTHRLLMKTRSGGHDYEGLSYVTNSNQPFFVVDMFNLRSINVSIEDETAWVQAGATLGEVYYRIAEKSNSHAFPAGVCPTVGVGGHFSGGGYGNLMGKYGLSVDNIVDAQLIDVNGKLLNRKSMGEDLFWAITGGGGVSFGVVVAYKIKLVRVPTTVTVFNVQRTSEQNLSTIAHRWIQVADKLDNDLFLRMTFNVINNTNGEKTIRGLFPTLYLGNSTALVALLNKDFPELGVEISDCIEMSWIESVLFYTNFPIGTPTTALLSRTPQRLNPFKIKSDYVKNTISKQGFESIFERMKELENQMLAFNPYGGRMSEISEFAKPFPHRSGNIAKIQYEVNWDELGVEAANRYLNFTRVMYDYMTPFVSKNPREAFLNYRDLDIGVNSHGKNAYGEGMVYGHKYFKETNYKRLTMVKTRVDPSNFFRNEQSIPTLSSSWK
Protocol: as §1

Sequence of glucose oxidase (GOX) from Aspergillus niger (Sigma, G 2133) (P13006 17-605): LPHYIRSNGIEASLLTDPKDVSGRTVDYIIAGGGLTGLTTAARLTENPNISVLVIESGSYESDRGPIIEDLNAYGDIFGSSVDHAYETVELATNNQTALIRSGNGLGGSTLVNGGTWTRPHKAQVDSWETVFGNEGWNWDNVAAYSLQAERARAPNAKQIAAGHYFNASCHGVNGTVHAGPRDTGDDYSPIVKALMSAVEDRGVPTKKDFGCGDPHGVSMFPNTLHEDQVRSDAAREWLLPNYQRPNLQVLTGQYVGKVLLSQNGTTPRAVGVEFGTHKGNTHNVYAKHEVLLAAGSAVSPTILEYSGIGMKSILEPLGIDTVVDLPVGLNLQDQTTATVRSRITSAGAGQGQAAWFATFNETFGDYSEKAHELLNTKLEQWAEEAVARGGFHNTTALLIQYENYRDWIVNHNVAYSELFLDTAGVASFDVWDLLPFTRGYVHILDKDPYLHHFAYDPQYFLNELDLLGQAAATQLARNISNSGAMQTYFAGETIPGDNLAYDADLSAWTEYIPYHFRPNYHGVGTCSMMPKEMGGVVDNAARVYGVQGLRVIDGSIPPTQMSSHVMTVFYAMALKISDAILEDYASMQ

With `OC[C@H]1OC(O)[C@H](O)[C@@H](O)[C@@H]1O` (stereo partly shown) [Glucose, glucose] as the compound, how does the Vmax [1] read?
Its Vmax is 16.8 μmolH2O2/min/mg.

And the Km ([2]; Lineweaver-Burk)?
The Km was 359 µM.

What about the Vmax ([2]; per mg protein) of the same compound?
The Vmax was 9.7 μmolH2O2/min/mg.

And the Vmax [3]?
Its Vmax is 5.7 μmolH2O2/min/mg.
